Source: patent US8785457B2 (Cellzome Limited, priority 2009, dated 2014)
Read-outs that look alike come from different tables or passages of the source.

Tests used:
Type in all cases: binding
[1] = target: T1, DNA-dependent protein kinase (DNA-PK) (Homo sapiens, UniProt P78527); test: kinobeads assay, DNA-PK; details: kinobeads assay
T1 construct: endogenous in cells; host or cells: Jurkat, clone E6-1 (ATCC TIB-152) cell lysate
Procedure, shortened: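 Competitive binding in Jurkat cell lysate (5 mg/mL protein) against beads carrying an immobilized phenylmorpholin-chromen ligand, in DP buffer pH 7.4 with NP40, DTT and NaF. Bead-bound kinases were eluted and quantified by antibody dot blot with infrared detection, and IC50 was taken from dose-response curves of a 1:3 dilution series.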

[2] = target: T2, PI3Kalpha (PI3Ka) (Homo sapiens, UniProt P42336); test: kinobeads assay, PI3Kalpha; details: kinobeads assay, Table 6; for IC50: read-out: Inhibition values (IC50) PI3Ka
T2 construct: endogenous in cells; host or cells: cell lysate
Procedure, shortened: (§1)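 Competitive binding in cell lysate: test compounds at various concentrations compete with beads carrying an immobilized phenylmorpholin-chromen ligand. Bead-captured kinases are eluted and quantified by multiplexed immunodetection. IC50 values come from dose-response curves for each kinase.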

[3] = target: T3, PI3 Kbeta (PI3 Kb) (Homo sapiens, UniProt P42338); test: kinobeads assay, PI3Kbeta; details: kinobeads assay, Table 6; read-out: Inhibition values (IC50) PI3Kb
T3 construct: endogenous in cells; host or cells: cell lysate
Procedure, shortened: as §1

[4] = Table 6, read-out: Inhibition values (IC50) DNAPK
[5] = Table 4, read-out: Inhibition values (IC50) DNA-PK

T1 sequence (P78527 whole entry): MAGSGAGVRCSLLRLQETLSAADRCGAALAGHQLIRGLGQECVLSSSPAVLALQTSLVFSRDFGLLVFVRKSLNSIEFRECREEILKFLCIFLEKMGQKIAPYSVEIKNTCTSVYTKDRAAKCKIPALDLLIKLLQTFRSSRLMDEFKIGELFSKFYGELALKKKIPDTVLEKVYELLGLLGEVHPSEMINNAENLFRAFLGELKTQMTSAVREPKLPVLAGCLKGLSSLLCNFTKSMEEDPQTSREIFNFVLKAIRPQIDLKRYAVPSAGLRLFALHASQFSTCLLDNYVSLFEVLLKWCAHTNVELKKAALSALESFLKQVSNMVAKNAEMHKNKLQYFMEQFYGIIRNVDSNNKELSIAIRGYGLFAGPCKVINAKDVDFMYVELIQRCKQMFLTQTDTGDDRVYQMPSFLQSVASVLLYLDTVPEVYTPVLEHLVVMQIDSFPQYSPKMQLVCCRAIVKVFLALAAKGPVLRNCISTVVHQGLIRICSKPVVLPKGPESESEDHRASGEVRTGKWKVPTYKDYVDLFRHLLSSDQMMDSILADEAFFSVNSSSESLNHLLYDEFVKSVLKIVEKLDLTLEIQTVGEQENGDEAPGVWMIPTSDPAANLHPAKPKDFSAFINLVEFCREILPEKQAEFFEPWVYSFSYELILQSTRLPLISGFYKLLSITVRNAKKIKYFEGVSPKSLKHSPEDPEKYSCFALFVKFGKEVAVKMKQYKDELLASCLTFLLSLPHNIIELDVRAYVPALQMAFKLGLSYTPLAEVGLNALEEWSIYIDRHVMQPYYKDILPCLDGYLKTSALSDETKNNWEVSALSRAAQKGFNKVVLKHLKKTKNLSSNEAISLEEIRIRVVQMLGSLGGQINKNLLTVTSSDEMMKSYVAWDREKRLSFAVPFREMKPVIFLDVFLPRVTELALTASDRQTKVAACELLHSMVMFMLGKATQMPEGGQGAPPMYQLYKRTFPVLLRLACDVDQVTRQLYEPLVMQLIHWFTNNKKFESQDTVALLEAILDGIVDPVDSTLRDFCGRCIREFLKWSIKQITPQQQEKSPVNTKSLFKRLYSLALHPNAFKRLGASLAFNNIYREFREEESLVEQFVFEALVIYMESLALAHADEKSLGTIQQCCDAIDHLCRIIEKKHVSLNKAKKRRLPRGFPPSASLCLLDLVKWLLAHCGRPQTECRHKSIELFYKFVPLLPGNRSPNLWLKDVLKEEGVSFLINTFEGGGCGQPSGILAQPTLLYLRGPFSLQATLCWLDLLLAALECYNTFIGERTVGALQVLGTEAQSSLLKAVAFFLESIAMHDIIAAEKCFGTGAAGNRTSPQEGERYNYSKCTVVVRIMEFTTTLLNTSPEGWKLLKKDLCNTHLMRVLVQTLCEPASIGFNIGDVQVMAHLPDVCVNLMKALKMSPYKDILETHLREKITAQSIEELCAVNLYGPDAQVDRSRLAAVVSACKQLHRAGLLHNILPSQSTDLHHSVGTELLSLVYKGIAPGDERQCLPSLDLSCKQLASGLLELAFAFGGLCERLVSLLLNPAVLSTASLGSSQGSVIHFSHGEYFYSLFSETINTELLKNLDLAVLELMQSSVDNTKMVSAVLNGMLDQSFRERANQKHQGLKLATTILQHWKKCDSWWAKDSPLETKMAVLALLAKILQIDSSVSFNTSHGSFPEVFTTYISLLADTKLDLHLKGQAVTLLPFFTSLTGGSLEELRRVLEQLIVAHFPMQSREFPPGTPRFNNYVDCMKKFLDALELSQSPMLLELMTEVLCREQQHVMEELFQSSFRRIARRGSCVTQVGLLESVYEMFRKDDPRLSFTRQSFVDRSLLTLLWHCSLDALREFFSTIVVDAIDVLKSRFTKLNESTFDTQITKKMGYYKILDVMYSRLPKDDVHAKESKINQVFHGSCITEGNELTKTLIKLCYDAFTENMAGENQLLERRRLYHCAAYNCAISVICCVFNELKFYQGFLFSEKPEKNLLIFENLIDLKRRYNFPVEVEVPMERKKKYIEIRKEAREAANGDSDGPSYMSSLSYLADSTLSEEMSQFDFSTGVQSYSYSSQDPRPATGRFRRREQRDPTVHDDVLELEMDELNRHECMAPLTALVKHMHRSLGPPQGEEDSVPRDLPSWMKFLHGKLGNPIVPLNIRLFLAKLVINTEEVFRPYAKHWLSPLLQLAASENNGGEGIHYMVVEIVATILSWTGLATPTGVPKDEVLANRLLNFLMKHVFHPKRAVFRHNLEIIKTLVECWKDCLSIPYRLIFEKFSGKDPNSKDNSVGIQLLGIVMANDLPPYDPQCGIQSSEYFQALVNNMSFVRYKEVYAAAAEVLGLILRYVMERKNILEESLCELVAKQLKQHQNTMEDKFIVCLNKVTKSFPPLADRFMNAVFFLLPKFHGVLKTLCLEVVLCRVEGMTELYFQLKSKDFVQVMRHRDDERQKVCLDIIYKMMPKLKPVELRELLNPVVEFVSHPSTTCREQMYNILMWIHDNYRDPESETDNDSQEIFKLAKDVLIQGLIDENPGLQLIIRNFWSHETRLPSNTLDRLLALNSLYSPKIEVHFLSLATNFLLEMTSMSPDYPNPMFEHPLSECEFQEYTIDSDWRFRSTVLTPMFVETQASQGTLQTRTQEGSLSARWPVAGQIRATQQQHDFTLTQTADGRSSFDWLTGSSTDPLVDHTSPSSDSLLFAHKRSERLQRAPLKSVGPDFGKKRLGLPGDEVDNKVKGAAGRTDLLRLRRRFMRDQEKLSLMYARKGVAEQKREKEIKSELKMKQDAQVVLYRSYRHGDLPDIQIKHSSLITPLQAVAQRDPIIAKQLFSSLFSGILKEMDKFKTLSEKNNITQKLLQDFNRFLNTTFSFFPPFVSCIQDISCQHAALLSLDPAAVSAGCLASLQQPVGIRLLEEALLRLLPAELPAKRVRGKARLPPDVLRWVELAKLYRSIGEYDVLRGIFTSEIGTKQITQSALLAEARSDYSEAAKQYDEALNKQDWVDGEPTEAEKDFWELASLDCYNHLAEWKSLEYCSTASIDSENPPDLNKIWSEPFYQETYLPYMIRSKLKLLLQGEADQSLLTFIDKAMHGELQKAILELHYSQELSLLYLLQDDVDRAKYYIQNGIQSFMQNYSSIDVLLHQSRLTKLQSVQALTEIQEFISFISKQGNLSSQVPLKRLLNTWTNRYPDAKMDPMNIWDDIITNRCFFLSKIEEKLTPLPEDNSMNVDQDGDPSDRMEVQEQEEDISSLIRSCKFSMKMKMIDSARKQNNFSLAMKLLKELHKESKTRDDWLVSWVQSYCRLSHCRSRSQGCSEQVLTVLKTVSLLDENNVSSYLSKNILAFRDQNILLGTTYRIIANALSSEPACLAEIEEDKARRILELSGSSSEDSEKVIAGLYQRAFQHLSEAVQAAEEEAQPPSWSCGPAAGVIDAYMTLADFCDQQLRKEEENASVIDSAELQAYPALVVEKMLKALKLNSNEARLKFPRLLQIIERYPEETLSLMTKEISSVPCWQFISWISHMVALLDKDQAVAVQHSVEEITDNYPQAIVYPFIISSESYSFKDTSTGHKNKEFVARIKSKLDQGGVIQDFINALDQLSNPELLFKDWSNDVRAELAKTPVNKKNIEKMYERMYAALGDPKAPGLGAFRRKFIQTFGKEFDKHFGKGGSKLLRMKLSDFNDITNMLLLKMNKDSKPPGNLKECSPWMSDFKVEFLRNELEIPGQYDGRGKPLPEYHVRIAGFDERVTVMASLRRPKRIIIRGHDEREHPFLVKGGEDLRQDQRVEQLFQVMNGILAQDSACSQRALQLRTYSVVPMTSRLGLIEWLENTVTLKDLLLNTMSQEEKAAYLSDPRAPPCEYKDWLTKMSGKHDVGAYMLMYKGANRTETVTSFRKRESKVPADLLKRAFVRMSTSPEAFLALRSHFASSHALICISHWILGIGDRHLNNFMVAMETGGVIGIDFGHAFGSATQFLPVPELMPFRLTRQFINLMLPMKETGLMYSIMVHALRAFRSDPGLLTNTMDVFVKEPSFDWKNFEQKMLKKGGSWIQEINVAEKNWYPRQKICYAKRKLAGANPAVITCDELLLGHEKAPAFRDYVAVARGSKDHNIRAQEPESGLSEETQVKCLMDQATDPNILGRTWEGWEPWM

Row | IC50 [1, 4] | Inhibition values (IC50) PI3Ka [2] | IC50 [3] | IC50 [1, 5] | IC50 [2] | SMILES
1 | > 10 µM | D (D >10 μM) | > 10 µM |  |  | Cc1cc(NC(=O)Nc2ccc(-c3nc4c(c(N5CCOC[C@@H]5C)n3)CN(C)C4)cc2)no1 [Example 72, (S)-1-(4-(6-methyl-4-(3-methylmorpholino)-6,7-dihydro-5H-pyrrolo[3,4-d]pyrimidin-2-yl)phenyl)-3-(5-methylisoxazol-3-yl)urea]
2 | 1 to 10 µM | D (D >10 μM) | > 10 µM |  |  | CCNC(=O)Nc1ccc(-c2nc3c(c(N4CCOC[C@@H]4C)n2)CN(C(=O)OC)C3)cc1 [Example 89, (S)-methyl 2-(4-(3-ethylureido)phenyl)-4-(3-methylmorpholino)-5H-pyrrolo[3,4-d]pyrimidine-6(7H)-carboxylate]
3 | > 10 µM | D (D >10 μM) | > 10 µM |  |  | CCNC(=O)Nc1ccc(-c2nc3c(c(N4CCOC[C@@H]4C)n2)CCN(C(=O)OC)C3)cc1 [Example 81, (S)-methyl 2-(4-(3-ethylureido)phenyl)-4-(3-methylmorpholino)-5,6-dihydropyrido[3,4-d]pyrimidine-7(8H)-carboxylate]
4 | > 10 µM | D (D >10 μM) | > 10 µM |  |  | C[C@H]1COCCN1c1nc(-c2ccc(NC(=O)NC3CC3)cc2)nc2c1CCN(C(=O)C(C)(C)C)C2 [Example 64, (S)-1-cyclopropyl-3-(4-(4-(3-methylmorpholino)-7-pivaloyl-5,6,7,8-tetrahydropyrido[3,4-d]pyrimidin-2-yl)phenyl)urea]
5 | > 10 µM | D (D >10 μM) | > 10 µM | > 10 µM |  | CC(=O)N1CCc2c(nc(-c3ccc(NC(=O)NC4CC4)cc3)nc2N2CCOC[C@@H]2C)C1 [Example 62, (S)-1-(4-(7-acetyl-4-(3-methylmorpholino)-5,6,7,8-tetrahydropyrido[3,4-d]pyrimidin-2-yl)phenyl)-3-cyclopropylurea]
6 | > 10 µM | D (D >10 μM) | > 10 µM |  |  | CCNC(=O)Nc1cc(F)c(-c2nc3c(c(N4CCOC[C@@H]4C)n2)CCN(C)C3)cc1F [Example 108, (S)-1-(2,5-difluoro-4-(7-methyl-4-(3-methylmorpholino)-5,6,7,8-tetrahydropyrido[3,4-d]pyrimidin-2-yl)phenyl)-3-ethylurea]
7 | > 10 µM |  | 1 to 10 µM |  | 1 to 10 µM | CCNC(=O)Nc1ccc(-c2nc3c(c(N4CCOCC4)n2)CN(C)C3)cc1 [Example 69, 1-Ethyl-3-(4-(6-methyl-4-morpholino-6,7-dihydro-5H-pyrrolo[3,4-d]pyrimidin-2-yl)phenyl)urea]
8 | > 10 µM |  |  |  |  | C[C@H]1COCCN1c1nc(-c2ccc(NC(=O)NC3CC3)cc2)nc2c1CN(CC(F)(F)F)C2 [Example 101, (S)-1-cyclopropyl-3-(4-(4-(3-methylmorpholino)-6-(2,2,2-trifluoroethyl)-6,7-dihydro-5H-pyrrolo[3,4-d]pyrimidin-2-yl)phenyl)urea]
9 | > 10 µM | D (D >10 μM) | > 10 µM |  |  | CCNC(=O)Nc1ccc(-c2nc3c(c(N4CCOCC4)n2)CCN(C(=O)OCC)C3)cc1 [Example 96, ethyl 2-(4-(3-ethylureido)phenyl)-4-morpholino-5,6-dihydropyrido[3,4-d]pyrimidine-7(8H)-carboxylate]
10 | > 10 µM | D (D >10 μM) | > 10 µM |  |  | CCNC(=O)Nc1ccc(-c2nc3c(c(N4CCOC[C@@H]4C)n2)CCN(C(=O)OCC)C3)cc1 [Example 77, (S)-ethyl 2-(4-(3-ethylureido)phenyl)-4-(3-methylmorpholino)-5,6-dihydropyrido[3,4-d]pyrimidine-7(8H)-carboxylate]
11 | > 10 µM | D (D >10 μM) | > 10 µM |  |  | CCNC(=O)Nc1ccc(-c2nc3c(c(N4CCOC[C@@H]4C)n2)CN(C(=O)OCC)C3)c(F)c1 [Example 113, (S)-ethyl-2-(4-(3-ethylureido)-2-fluorophenyl)-4-(3-methylmorpholino)-5H-pyrrolo[3,4-d]pyrimidine-6(7H)-carboxylate]
12 | > 10 µM | D (D >10 μM) | > 10 µM |  |  | CCOC(=O)N1Cc2nc(-c3ccc(NC(=O)NCCO)c(F)c3)nc(N3CCOC[C@@H]3C)c2C1 [Example 104, (S)-ethyl-2-(3-fluoro-4-(3-(2-hydroxyethyl)ureido)phenyl)-4-(3-methylmorpholino)-5H-pyrrolo[3,4-d]pyrimidine-6(7H)-carboxylate]
13 | > 10 µM | D (D >10 μM) | > 10 µM |  |  | CCNC(=O)Nc1ccc(-c2nc3c(c(N4CCOC[C@@H]4C)n2)CN(C)C3)cc1F [Example 85, (S)-1-ethyl-3-(2-fluoro-4-(6-methyl-4-(3-methylmorpholino)-6,7-dihydro-5H-pyrrolo[3,4-d]pyrimidin-2-yl)phenyl)urea]
14 | > 10 µM |  | 1 to 10 µM |  | 1 to 10 µM | C[C@H]1COCCN1c1nc(-c2ccc(NC(=O)NCCO)cc2)nc2c1CN(C)C2 [Example 73, (S)-1-(2-hydroxyethyl)-3-(4-(6-methyl-4-(3-methylmorpholino)-6,7-dihydro-5H-pyrrolo[3,4-d]pyrimidin-2-yl)phenyl)urea]
15 | > 10 µM | D (D >10 μM) | > 10 µM |  |  | CCOC(=O)N1Cc2nc(-c3ccc(NC(=O)NC4CC4)c(F)c3)nc(N3CCOC[C@@H]3C)c2C1 [Example 105, (S)-ethyl 2-(4-(3-cyclopropylureido)-3-fluorophenyl)-4-(3-methylmorpholino)-5H-pyrrolo[3,4-d]pyrimidine-6(7H)-carboxylate]
16 | > 10 µM | D (D >10 μM) | > 10 µM | > 10 µM |  | C[C@H]1COCCN1c1nc(-c2ccc(NC(=O)NC3CC3)cc2)nc2c1CCN(C(=O)C1CC1)C2 [Example 60, (S)-1-(4-(7-(cyclopropanecarbonyl)-4-(3-methylmorpholino)-5,6,7,8-tetrahydropyrido[3,4-d]pyrimidin-2-yl)phenyl)-3-cyclopropylurea]
17 |  | D (D >10 μM) |  |  |  | C[C@H]1COCCN1c1nc(-c2ccc(NC(=O)NC3CC3)cc2)nc2c1CN(C(=O)C1CCOCC1)C2 [Example 129, (S)-1-cyclopropyl-3-(4-(4-(3-methylmorpholino)-6-(tetrahydro-2H-pyran-4-carbonyl)-6,7-dihydro-5H-pyrrolo[3,4-d]pyrimidin-2-yl)phenyl)urea]
18 | > 10 µM |  |  | > 10 µM |  | CCNC(=O)Nc1ccc(-c2nc3c(c(N4CCOC[C@@H]4C)n2)CN(C(=O)OC(C)(C)C)C3)cc1 [Example 1, (S)-tert-butyl 2-(4-(3-ethylureido)phenyl)-4-(3-methylmorpholino)-5H-pyrrolo[3,4-d]pyrimidine-6(7H)-carboxylate]
19 | > 10 µM |  |  | > 10 µM |  | CCNC(=O)Nc1ccc(-c2nc3c(c(N4CCOC[C@@H]4C)n2)CCN(C(C)=O)C3)cc1 [Example 59, (S)-1-(4-(7-acetyl-4-(3-methylmorpholino)-5,6,7,8-tetrahydropyrido[3,4-d]pyrimidin-2-yl)phenyl)-3-ethylurea]
